Legend:
Type in all cases: functional
Pseudomonas aeruginosa [1] = assay: Antimicrobial activity against ESBL- and MBL-producing and ceftazidime-resistant Pseudomonas aeruginosa isolated from patients with bloodstream infection assessed as resistant isolates by agar dilution method
Pseudomonas aeruginosa [2] = assay: Antimicrobial activity against ESBL- and MBL-producing Pseudomonas aeruginosa isolated from patients with bloodstream infection assessed as resistant isolates by agar dilution method
Pseudomonas aeruginosa [3] = assay: Antimicrobial activity against Pseudomonas aeruginosa clinical isolate overexpressing AmpC gene assessed as resistant isolates by agar dilution method
Pseudomonas aeruginosa [4] = assay: Antimicrobial activity against beta-lactamase-producing Pseudomonas aeruginosa clinical isolate assessed as susceptible isolates by agar dilution method
Pseudomonas aeruginosa [5] = assay: Antimicrobial activity against beta-lactamase-producing Pseudomonas aeruginosa clinical isolate assessed as susceptible isolate by agar dilution method in presence of beta-lactamase inhibitor Tazobactam
Pseudomonas aeruginosa [6] = assay: Antimicrobial activity against beta-lactamase-producing Pseudomonas aeruginosa clinical isolate by agar dilution method

Q: Which Activity (Pseudomonas aeruginosa [1]) does the source give for `C[C@@H](O)[C@H]1C(=O)N2C(C(=O)O)=C(S[C@@H]3CN[C@H](C(=O)N(C)C)C3)[C@H](C)[C@H]12` [MEROPENEM] here?
A: Its Activity is 95%.

Q: Which Activity (Pseudomonas aeruginosa [2]) does the source give for `CC(C)(O/N=C(\C(=O)N[C@@H]1C(=O)N2C(C(=O)[O-])=C(C[n+]3ccccc3)CS[C@H]12)c1csc(N)n1)C(=O)O` [CEFTAZIDIME] here?
A: The Activity was 28%.

Q: What about the Activity (Pseudomonas aeruginosa [3]) of the same compound?
A: The Activity was 9.3%.

Q: What does the source list for `C[C@@H](O)[C@H]1C(=O)N2C(C(=O)O)=C(SCCNC=N)C[C@H]12` [IMIPENEM ANHYDROUS]?
A: Activity (Pseudomonas aeruginosa [1]): 82%; Activity (Pseudomonas aeruginosa [4]): 18.6%

Q: How did the Activity (Pseudomonas aeruginosa [4]) turn out when `NCC[C@H](O)C(=O)N[C@@H]1C[C@H](N)[C@@H](O[C@H]2O[C@H](CN)[C@@H](O)[C@H](O)[C@H]2O)[C@H](O)[C@H]1O[C@H]1O[C@H](CO)[C@@H](O)[C@H](N)[C@H]1O` [AMIKACIN] was run?
A: Its Activity is 18.6%.

Q: With `CCN1CCN(C(=O)N[C@@H](C(=O)N[C@@H]2C(=O)N3[C@@H]2SC(C)(C)[C@@H]3C(=O)O)c2ccccc2)C(=O)C1=O` [PIPERACILLIN] as the compound, how does the Activity (Pseudomonas aeruginosa [5]) read?
A: The Activity was 39.5%.

Q: And the MIC (Pseudomonas aeruginosa [6])?
A: The MIC was no more than 16 µg/mL.

Q: And the Activity (Pseudomonas aeruginosa [4])?
A: The Activity was 34.8%.

Q: COLISTIN was tested. Which Activity (Pseudomonas aeruginosa [4]) did it give?
A: The Activity was 100%.

— ChEMBL document CHEMBL1649211, “Diversity of beta-lactamases produced by ceftazidime-resistant Pseudomonas aeruginosa isolates causing bloodstream infections in Brazil” (2009)
